Laboratory results from patent US10508123B2, “Polymorphs” (Vectura Limited, priority 2015, dated 2019).

Key:
[1] = Competitive slurrying experiments (solid form by XRPD after one week); type: physicochemical
Procedure: 10 mg (+/−1 mg) each of the Form I, Form II, Form III, 1,2-dimethoxtethane solvate and the hydrate of (S)-3-(3-(1-methyl-2-oxo-5-(pyrazolo[1,5-a]pyridine-3-yl)-1H-imidazo[4,5-b]pyridine-3(2H)-yl)piperidin-1-yl)-3-oxopropanenitrile was added to each of twelve vials. The solvent systems used had been pre-saturated with (S)-3-(3-(1-methyl-2-oxo-5-(pyrazolo[1,5-a]pyridine-3-yl)-1H-imidazo[4,5-b]pyridine-3(2H)-yl)piperidin-1-yl)-3-oxopropanenitrile by shaking a slurry of Form I at the relevant temperature for 16 hours and then passing through a 1 μm glass filter.
The resulting slurries were agitated at the temperature shown for a period of one week. The solids present were then isolated by filtration, air dried and characterised by XRPD.

[2] = Solubility of the compound in water (remark in the slurrying results); type: physicochemical

## Cn1c(=O)n([C@H]2CCCN(C(=O)CC#N)C2)c2nc(-c3cnn4ccccc34)ccc21 [Form I, (S)-3-(3-(1-methyl-2-oxo-5-(pyrazolo[1,5-a]pyridine-3-yl)-1H-imidazo[4,5-b]pyridine-3(2H)-yl)piperidin-1-yl)-3-oxopropanenitrile]
[1]; all vials, except one of the experiments in water
  form visible in the isolated solids: No Form I or Form III material was visible

## Cn1c(=O)n([C@H]2CCCN(C(=O)CC#N)C2)c2nc(-c3cnn4ccccc34)ccc21 [Hydrate I, (S)-3-(3-(1-methyl-2-oxo-5-(pyrazolo[1,5-a]pyridine-3-yl)-1H-imidazo[4,5-b]pyridine-3(2H)-yl)piperidin-1-yl)-3-oxopropanenitrile]
[1]; in organic solvents
  stability of the hydrate relative to anhydrous Form II: less stable than the anhydrous Form II
[1]; water at 50 °C, not at 25 °C or 5 °C
  conversion of the hydrate in the slurry: complete conversion to Form II

## Cn1c(=O)n([C@H]2CCCN(C(=O)CC#N)C2)c2nc(-c3cnn4ccccc34)ccc21 [Compound (I), (S)-3-(3-(1-methyl-2-oxo-5-(pyrazolo[1,5-a]pyridine-3-yl)-1H-imidazo[4,5-b]pyridine-3(2H)-yl)piperidin-1-yl)-3-oxopropanenitrile]
[2]
  solubility in water: poor solubility
[1]; vial 1, water, 5 °C, slurry of Form I, II, III, 1,2-dimethoxyethane solvate and hydrate agitated one week, poor recovery hampered interpretation
  XRPD characterisation: Form II/Hydrate*
[1]; vial 2, water, 25 °C, mixed-form slurry, one week
  XRPD characterisation: Form II/Form III/Hydrate
[1]; vial 3, water, 50 °C, mixed-form slurry, one week
  XRPD characterisation: Form II
[1]; vial 4, MEK, 5 °C, mixed-form slurry, one week
  XRPD characterisation: Form II
[1]; vial 5, MEK, 25 °C, mixed-form slurry, one week
  XRPD characterisation: Form II
[1]; vial 6, MEK, 50 °C, mixed-form slurry, one week
  XRPD characterisation: Form II
[1]; vial 7, EtOAc, 5 °C, mixed-form slurry, one week
  XRPD characterisation: Form II/1,2-dimethoxyethane solvate
[1]; vial 8, EtOAc, 25 °C, mixed-form slurry, one week
  XRPD characterisation: Form II/1,2-dimethoxyethane solvate
[1]; vial 9, EtOAc, 50 °C, mixed-form slurry, one week
  XRPD characterisation: Form II
[1]; vial 10, IPA, 5 °C, mixed-form slurry, one week
  XRPD characterisation: Form II
[1]; vial 11, IPA, 25 °C, mixed-form slurry, one week
  XRPD characterisation: Form II/1,2-dimethoxyethane solvate
[1]; vial 12, IPA, 50 °C, mixed-form slurry, one week
  XRPD characterisation: Form II

## Cn1c(=O)n([C@H]2CCCN(C(=O)CC#N)C2)c2nc(-c3cnn4ccccc34)ccc21 [Form II, (S)-3-(3-(1-methyl-2-oxo-5-(pyrazolo[1,5-a]pyridine-yl)-1H-imidazo[45-b]pyridine-3(2H)-yl)piperidin-1-yl)-3-oxopropanenitrile]
[1]; at all three temperatures evaluated (5, 25, 50 °C)
  thermodynamic stability among the three anhydrous forms: most thermodynamically stable
[1]; at temperatures up to 50 °C
  thermodynamic stability compared to the other polymorphic forms or the solvates and hydrates: greater thermodynamic stability
[1]; competitive slurrying experiments
  thermodynamic stability compared to the Form 1 and Form III polymorphs: surprisingly advantageous thermodynamic stability
